Reference: PubChem BioAssay AID1963833 (Molecular Pharmacology Branch, DTP, NCI, 2024)
pIC50: −log10 of the molar value.

Test system: 883617-216-R-J1-PDC complex spheroid viability
Assay: Anticancer human tumor 883617-216-R-J1-PDC patient-derived bladder carcinoma cell line growth inhibition [POLQ]
Settings: for pIC50: curve of first compound; for viability, T/C: stronger effect = lower value
Procedure: Multicellular complex tumor spheroid response to Polymerase (POL) inhibitors (novobiocin, ART-558, RP6685) in combination with a variety of drugs and investigational agents in selected tumor cell lines
The POL inhibitors (novobiocin, ART-558, and RP6685) were evaluated both individually and in combination with standard of care and investigational anticancer small molecules within a complex spheroid model of solid tumors. . Complex spheroids include a stromal component modeled by human endothelial cells (HUVEC) and fibroblasts modeled by human mesenchymal stem cells (MSCs). The concentration ranges selected for each drug and investigational agent were based upon clinically achievable concentrations if the clinical Cmax of the agent was known.
Compounds. The drugs and investigational agents: novobiocin (NSC847541), ART-558 (NSC835418), RP-6685 (NSC848927), peposertib (NSC802822), ceralasertib (NSC780249), elimusertib (NSC800525), camonsertib (NSC841442), AZD-1390 (NSC803789), olaparib (NSC753686), talazoparib (NSC767125), rucaparib (NSC756644), sotorasib (NSC818433), MRTX-1133 (NSC836407), SN-38 (NSC673596), topotecan (NSC609699), epotoside (NSC141540), doxorubicin (NSC123127), gemcitabine (NSC613327), 5-fluorouracil (NSC19893), paclitaxel (NSC125973), vemurafenib (NSC761431), MSA-2 (NSC828583), SN-011 (NSC837082), adavosertib (NSC754352), prexasertib (NSC758257), carboplatin (NSC241240) and oxaliplatin (NSC266046), were obtained from the National Cancer Institute (NCI) Developmental Therapeutics Program Chemical Repository (21). The FDA-approved anticancer drug set is available from the Developmental Therapeutics Program at https://dtp.cancer.gov/organization/dscb/obtaining/. […] The stock solutions were prepared in dimethyl sulfoxide (DMSO, Sigma-Aldrich, St. Louis, MO, cat. D2650), except for the platinum compounds which were prepared in saline (Quality Biological, Gaithersburg, MD, cat. 114-055-101), at 800-fold the tested concentration and stored at -70 degrees C prior to their use. All drugs and investigational agents were tested over a range starting from a high concentration at or near the clinical Cmax and decreasing in half-log increments. If the clinical Cmax for an agent had not been determined, the highest concentration tested was 10 microM, except for SN-38, which was tested at a high concentration of 1 microM.
Cell Culture. All cells were maintained in an incubator at 37 degrees C and 5% CO2 with 95% humidity. The PDC lines were cultured according to standard operating procedures established by the NCI PDMR (https://pdmr.cancer.gov). Table 3 of the manuscript, lists the cell lines along with the number of the three cell types plated to form the mct-spheroids and media for tumor cell growth. After thawing, all PDC lines, except 997537-175-T-J1-PDC and 415267-285-R-J2-PDC, were cultured in Matrigel-coated flasks prepared with a working solution of 1X Ham's F-12 nutrient mix, without supplementation (Thermo Fisher Scientific, cat. 11765054), 100 U/mL penicillin-streptomycin (Thermo Fisher Scientific, cat. 15140122), and 2.5% Matrigel (Corning Inc., Corning, NY, cat. 354248) for the first three passages. The two PDC lines 997537-175-T-J1-PDC and 415267-285-R-J2-PDC were cultured on uncoated flasks. The 857933-349-R-J2-PDC line was cultured in 6C/Colon 1B media containing advanced DMEM/F-12 (Thermo Fisher Scientific, cat. 12634028), 10 mM HEPES (Thermo Fisher Scientific, cat. 15630080), 1X GlutaMAX supplement (Thermo Fisher Scientific, cat. 35050061), 0.1 mg/mL primocin (InvivoGen, San Diego, CA, cat. ant-pm-2), 10% defined fetal bovine serum, heat inactivated (HyClone Laboratories Inc., Logan, UT, cat. SH30070.03HI), 50% L-WRN conditioned media (ATCC, cat. CRL-3276), 1.25 mM N-Acetyl-L-cysteine (Sigma-Aldrich, cat. A9165), 10 mM nicotinamide (Sigma-Aldrich, cat. N0636), 1X B-27 supplement (Thermo Fisher Scientific, cat. 17504044), 1X N-2 supplement (Thermo Fisher Scientific, cat. […]

[1] = second compound 0.0316 µM, first compound 0.0316 µM
[2] = second compound 0.0316 µM, first compound 0.1 µM
[3] = second compound 0.1 µM, first compound 0.0316 µM
[4] = second compound 0.1 µM, first compound 0.1 µM
[5] = second compound 0.316 µM, first compound 0.0316 µM
[6] = second compound 0.316 µM, first compound 0.1 µM
[7] = second compound 1 µM, first compound 0.0316 µM
[8] = second compound 1 µM, first compound 0.1 µM
[9] = second compound 3.16 µM, first compound 0.0316 µM
[10] = second compound 3.16 µM, first compound 0.1 µM
[11] = second compound 10 µM, first compound 0.0316 µM
[12] = second compound 10 µM, first compound 0.1 µM
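Also: spheroids exposed to compounds for seven days before readout.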
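For viability, T/C in this document: 100% = DMSO vehicle control viability.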

Cn1ncnc1[C@H]1c2n[nH]c(=O)c3cc(F)cc(c23)N[C@@H]1c1ccc(F)cc1 + COC1C(OC(N)=O)C(O)C(Oc2ccc3c(O)c(NC(=O)c4ccc(O)c(CC=C(C)C)c4)c(=O)oc3c2C)OC1(C)C
pIC50 (second compound 0.0316 µM): < 7.00
pIC50 (second compound 0.1 µM): < 7.00
pIC50 (second compound 0.316 µM): < 7.00
pIC50 (second compound 1 µM): < 7.00
pIC50 (second compound 3.16 µM): < 7.00
pIC50 (second compound 10 µM): < 7.00
viability, T/C (second compound 0.0316 µM, first compound 0.000316 µM): 103%
viability, T/C (second compound 0.0316 µM, first compound 0.001 µM): 93.1%
viability, T/C (second compound 0.0316 µM, first compound 0.00316 µM): 95.5%
viability, T/C (second compound 0.0316 µM, first compound 0.01 µM): 94.9%
viability, T/C [1]: 72.8%
viability, T/C [2]: 78.4%
viability, T/C (second compound 0.1 µM, first compound 0.000316 µM): 110%
viability, T/C (second compound 0.1 µM, first compound 0.001 µM): 95.9%
viability, T/C (second compound 0.1 µM, first compound 0.00316 µM): 108%
viability, T/C (second compound 0.1 µM, first compound 0.01 µM): 80.2%
viability, T/C [3]: 75.8%
viability, T/C [4]: 69.3%
viability, T/C (second compound 0.316 µM, first compound 0.000316 µM): 108%
viability, T/C (second compound 0.316 µM, first compound 0.001 µM): 99%
viability, T/C (second compound 0.316 µM, first compound 0.00316 µM): 89.9%
viability, T/C (second compound 0.316 µM, first compound 0.01 µM): 82.9%
viability, T/C [5]: 67.5%
viability, T/C [6]: 64%
viability, T/C (second compound 1 µM, first compound 0.000316 µM): 95.8%
viability, T/C (second compound 1 µM, first compound 0.001 µM): 104%
viability, T/C (second compound 1 µM, first compound 0.00316 µM): 101%
viability, T/C (second compound 1 µM, first compound 0.01 µM): 80.5%
viability, T/C [7]: 83.2%
viability, T/C [8]: 76.9%
viability, T/C (second compound 3.16 µM, first compound 0.000316 µM): 99.4%
viability, T/C (second compound 3.16 µM, first compound 0.001 µM): 102%
viability, T/C (second compound 3.16 µM, first compound 0.00316 µM): 101%
viability, T/C (second compound 3.16 µM, first compound 0.01 µM): 70.9%
viability, T/C [9]: 82.5%
viability, T/C [10]: 68%
viability, T/C (second compound 10 µM, first compound 0.000316 µM): 94.2%
viability, T/C (second compound 10 µM, first compound 0.001 µM): 97.9%
viability, T/C (second compound 10 µM, first compound 0.00316 µM): 97.7%
viability, T/C (second compound 10 µM, first compound 0.01 µM): 71.6%
viability, T/C [11]: 79.5%
viability, T/C [12]: 70.8%

O=C(c1cc(Cc2n[nH]c(=O)c3ccccc23)ccc1F)N1CCN(C(=O)C2CC2)CC1 + COC1C(OC(N)=O)C(O)C(Oc2ccc3c(O)c(NC(=O)c4ccc(O)c(CC=C(C)C)c4)c(=O)oc3c2C)OC1(C)C
pIC50 (second compound 0.0316 µM): < 5.00
pIC50 (second compound 0.1 µM): < 5.00
pIC50 (second compound 0.316 µM): < 5.00
pIC50 (second compound 1 µM): < 5.00
pIC50 (second compound 3.16 µM): < 5.00
pIC50 (second compound 10 µM): < 5.00
viability, T/C [1]: 106%
viability, T/C [2]: 98%
viability, T/C (second compound 0.0316 µM, first compound 0.316 µM): 103%
viability, T/C (second compound 0.0316 µM, first compound 1 µM): 99.1%
viability, T/C (second compound 0.0316 µM, first compound 3.16 µM): 72.5%
viability, T/C (second compound 0.0316 µM, first compound 10 µM): 62.9%
viability, T/C [3]: 91%
viability, T/C [4]: 88.5%
viability, T/C (second compound 0.1 µM, first compound 0.316 µM): 88.9%
viability, T/C (second compound 0.1 µM, first compound 1 µM): 97.4%
viability, T/C (second compound 0.1 µM, first compound 3.16 µM): 81.6%
viability, T/C (second compound 0.1 µM, first compound 10 µM): 63%
viability, T/C [5]: 96.1%
viability, T/C [6]: 87.6%
viability, T/C (second compound 0.316 µM, first compound 0.316 µM): 100%
viability, T/C (second compound 0.316 µM, first compound 1 µM): 92.3%
viability, T/C (second compound 0.316 µM, first compound 3.16 µM): 78%
viability, T/C (second compound 0.316 µM, first compound 10 µM): 70.3%
viability, T/C [7]: 97.4%
viability, T/C [8]: 85.5%
viability, T/C (second compound 1 µM, first compound 0.316 µM): 109%
viability, T/C (second compound 1 µM, first compound 1 µM): 91.9%
viability, T/C (second compound 1 µM, first compound 3.16 µM): 96.1%
viability, T/C (second compound 1 µM, first compound 10 µM): 63.5%
viability, T/C [9]: 91.2%
viability, T/C [10]: 87.8%
viability, T/C (second compound 3.16 µM, first compound 0.316 µM): 95.8%
viability, T/C (second compound 3.16 µM, first compound 1 µM): 89%
viability, T/C (second compound 3.16 µM, first compound 3.16 µM): 79.1%
viability, T/C (second compound 3.16 µM, first compound 10 µM): 65.3%
viability, T/C [11]: 94%
viability, T/C [12]: 91.6%
viability, T/C (second compound 10 µM, first compound 0.316 µM): 94.8%
viability, T/C (second compound 10 µM, first compound 1 µM): 73.3%
viability, T/C (second compound 10 µM, first compound 3.16 µM): 98.7%
viability, T/C (second compound 10 µM, first compound 10 µM): 74.5%
